Measurements from publication PMC11342346 (ACS Bio & Med Chem Au, 2024).
pKd: −log10 of the molar value. *1 amine or outer side, *2 acyl side, *3 side chain or, on linkers, in order; H or OH if unused. Where a SMILES comes first, the peptide text is derived from it. Bridges are numbered along the chain shown (N, C = ends). Roman numbers before positions name the chains, in order. Where no end group is shown, it is not given here. The star is where a group is joined. CO(CH2CH2O)5CH2CH2CO = O=C(CCOCCOCCOCCOCCOCCC(=O)[*:2])[*:1]; PEG12 = NCCOCCOCCOCCOCCOCCOCCOCCOCCOCCOCCOCCOCCC(=O)O; Biotin = O=C1N[C@H]2[C@H](CS[C@H]2CCCCC(=O)*)N1; PEG2 = NCCOCCOCCC(=O)O

Columns and labels:
[1] = test system: Ring Finger Protein 43 (RNF43); type: binding; conditions: SPR, DCP immobilized on streptavidin sensor, RNF43 as analyte
[2] = test system: Wnt signaling in HEK293 TOPbrite (TB) luciferase reporter cells; type: cell-based; conditions: three independent runs
biotin-PEG2-MK1-3.6.10S = experiment: SPR
biotin-PEG12-MK1-3.6.10S = experiment: SPR

Sequence of human ZNRF3 (free, in solution) (Q9ULT6 56-936): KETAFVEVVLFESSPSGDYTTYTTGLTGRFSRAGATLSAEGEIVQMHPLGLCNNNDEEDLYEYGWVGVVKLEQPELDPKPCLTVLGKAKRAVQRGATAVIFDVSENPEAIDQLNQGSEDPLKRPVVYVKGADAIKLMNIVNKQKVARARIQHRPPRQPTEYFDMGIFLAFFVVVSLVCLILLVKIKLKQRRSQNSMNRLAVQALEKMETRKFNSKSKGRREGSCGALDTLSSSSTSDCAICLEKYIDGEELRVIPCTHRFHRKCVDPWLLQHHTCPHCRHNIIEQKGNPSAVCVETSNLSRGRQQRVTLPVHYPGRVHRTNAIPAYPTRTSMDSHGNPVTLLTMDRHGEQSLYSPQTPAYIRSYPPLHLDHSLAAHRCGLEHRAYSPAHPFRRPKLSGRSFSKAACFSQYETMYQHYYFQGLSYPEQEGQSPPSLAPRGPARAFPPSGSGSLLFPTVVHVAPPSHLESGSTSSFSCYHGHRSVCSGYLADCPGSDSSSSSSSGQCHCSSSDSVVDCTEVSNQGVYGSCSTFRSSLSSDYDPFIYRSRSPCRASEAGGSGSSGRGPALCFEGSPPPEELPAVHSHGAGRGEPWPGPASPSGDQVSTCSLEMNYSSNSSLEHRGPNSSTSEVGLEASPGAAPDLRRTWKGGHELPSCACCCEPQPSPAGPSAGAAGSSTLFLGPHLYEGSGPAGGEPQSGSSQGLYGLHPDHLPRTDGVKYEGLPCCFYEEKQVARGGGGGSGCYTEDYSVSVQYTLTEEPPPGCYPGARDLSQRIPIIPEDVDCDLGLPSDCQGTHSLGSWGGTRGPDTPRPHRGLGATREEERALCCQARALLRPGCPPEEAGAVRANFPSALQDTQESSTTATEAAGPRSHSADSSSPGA

CC[C@H](C)[C@@H]1NC(=O)[C@@H]2CCCN2C(=O)[C@H](CCCNC(=N)N)NC(=O)[C@H](CCC(=O)O)NC(=O)[C@@H]2CSSC[C@@H]3NC(=O)[C@H](CCCCN)NC(=O)[C@H](CCCCN)NC(=O)[C@H](CC(N)=O)NC(=O)[C@H](CC(C)C)NC(=O)[C@H](CCCNC(=N)N)NC(=O)[C@H](CC(N)=O)NC(=O)[C@@H](NC(=O)[C@H](CO)NC(=O)CCOCCOCCNC(=O)CCCC[C@@H]4SC[C@@H]5NC(=O)N[C@@H]54)CSSC[C@H](NC(=O)[C@H](CSSC[C@@H](C(=O)N[C@@H](CCCNC(=N)N)C(=O)N4CCC[C@H]4C(=O)N[C@@H](CC(=O)O)C(=O)N[C@H](C(=O)NCC(=O)N4CCC[C@H]4C(=O)O)C(C)C)NC(=O)[C@H](Cc4ccc(O)cc4)NC(=O)[C@H](CCSC)NC(=O)[C@H](Cc4ccccc4)NC(=O)[C@H](CCCCN)NC(=O)[C@H](Cc4c[nH]c5ccccc45)NC(=O)CNC1=O)NC(=O)[C@H](CC(=O)O)NC(=O)[C@H](C)NC(=O)[C@H](CC(=O)O)NC(=O)[C@H](CO)NC(=O)[C@H](CC(N)=O)NC3=O)C(=O)N[C@@H](C)C(=O)N[C@@H](CC(N)=O)C(=O)N[C@@H](CCCCN)C(=O)N[C@@H](CCC(=O)O)C(=O)N[C@@H](CCCCN)C(=O)N2 [biotin-PEG2-MK1-3.6.10S] ({Biotin-PEG2}-SCNRLNKKCNSDADCCANKEKCERPIGWKFMYCRPDVGP-OH; disulfide 2-16, 9-22, 15-33; C-terminus assumed)
binding to RNF43 [1]: did not bind

CC[C@H](C)[C@@H]1NC(=O)[C@@H]2CCCN2C(=O)[C@H](CCCNC(=N)N)NC(=O)[C@H](CCC(=O)O)NC(=O)[C@@H]2CSSC[C@@H]3NC(=O)[C@H](CCCCN)NC(=O)[C@H](CCCCN)NC(=O)[C@H](CC(N)=O)NC(=O)[C@H](CC(C)C)NC(=O)[C@H](CCCNC(=N)N)NC(=O)[C@H](CC(N)=O)NC(=O)[C@@H](NC(=O)[C@H](CO)NC(=O)CCOCCOCCOCCOCCOCCOCCOCCOCCOCCOCCOCCOCCNC(=O)CCCC[C@@H]4SC[C@@H]5NC(=O)N[C@@H]54)CSSC[C@H](NC(=O)[C@H](CSSC[C@@H](C(=O)N[C@@H](CCCNC(=N)N)C(=O)N4CCC[C@H]4C(=O)N[C@@H](CC(=O)O)C(=O)N[C@H](C(=O)NCC(=O)N4CCC[C@H]4C(=O)O)C(C)C)NC(=O)[C@H](Cc4ccc(O)cc4)NC(=O)[C@H](CCSC)NC(=O)[C@H](Cc4ccccc4)NC(=O)[C@H](CCCCN)NC(=O)[C@H](Cc4c[nH]c5ccccc45)NC(=O)CNC1=O)NC(=O)[C@H](CC(=O)O)NC(=O)[C@H](C)NC(=O)[C@H](CC(=O)O)NC(=O)[C@H](CO)NC(=O)[C@H](CC(N)=O)NC3=O)C(=O)N[C@@H](C)C(=O)N[C@@H](CC(N)=O)C(=O)N[C@@H](CCCCN)C(=O)N[C@@H](CCC(=O)O)C(=O)N[C@@H](CCCCN)C(=O)N2 [biotin-PEG12-MK1-3.6.10S] ({Biotin-PEG12}-SCNRLNKKCNSDADCCANKEKCERPIGWKFMYCRPDVGP-OH; disulfide 2-16, 9-22, 15-33; C-terminus assumed)
binding to RNF43 [1]: did not bind

I: SCNRLNKKCNSDADCCANKEKCERPIGWKFMYCRPDVGP / II: SCNRLNKKCNSDADCCANKEKCERPIGWKFMYCRPDVGP (disulfide I:2-I:16, I:9-I:22, I:15-I:33, II:2-II:16, II:9-II:22, II:15-II:33; linker I:N-II:N via CO(CH2CH2O)5CH2CH2CO) [di-MK1-3.6.10S]
activation of Wnt signaling in reporter assay (in words) [2]: able to induce Wnt signaling activation to a similar extent to the synthetic MK1-3.6.10 dimer

human ZNRF3 (free, in solution) (from UniProt Q9ULT6 56-936) (natural protein)
pKd (biotin-PEG2-MK1-3.6.10S): 6.83
pKd (biotin-PEG12-MK1-3.6.10S): 6.93
